Measurements from patent US11000033B2, “Ketone or oxime compound, and herbicide” (NISSAN CHEMICAL CORPORATION, priority 2014, dated 2021).

Experiments:
Type in all cases: in vivo
Scirpus juncoides [1] = test: Test Example 1: herbicidal activity, application before weed generation in submerged conditions (symbol B); settings: application herbicide amount 320 g/ha
How it was run: (§1)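 Compound emulsion was diluted to a set herbicide amount and applied to the water surface on the sowing day, into submerged (4 cm) alluvial-soil pots sown with mixed weed seeds and transplanted 2.5-leaf rice. Pots were held in a 25–30 °C greenhouse, and weeds were scored 0–5 by herbicidal ratio after 3 weeks.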

Monochoria vaginalis = test: Test Example 1: herbicidal activity, application before weed generation in submerged conditions (symbol C); settings: application herbicide amount 320 g/ha
How it was run: as §1

Scirpus juncoides [2] = test: Test Example 2: herbicidal activity, application during weed generation in submerged conditions (symbol B); settings: Table 23; application herbicide amount 320 g/ha; grade 0-5 by criteria of Test Example 1
How it was run: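 Scoring of herbicidal effect took place 3 weeks after treatment, using the criteria of the earlier test. Treatment was water-surface application of diluted emulsifiable compound at a set dose. Plants were at one- to two-leaf stage in submerged alluvial soil (4 cm depth), greenhouse 25-30° C.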

Avena fatua = test: Test Example 4: herbicidal effect by soil treatment (symbol I); settings: application herbicide amount 320 g/ha
How it was run: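 Seeds were sown in sterilized diluvial soil, covered with about 1.5 cm of soil, and the soil surface was sprayed with a water-diluted emulsion of the compound at a predetermined rate. Plants grew in a greenhouse at 25° C. to 30° C.; effects were scored visually 3 weeks after application.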

corn [3] = test: Test Example 4: effect on crop by soil treatment (symbol c); settings: application herbicide amount 320 g/ha
How it was run: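 Grown at 25° C. to 30° C. in a greenhouse, the crops came from seed sown spot-wise in sterilized diluvial soil under roughly 1.5 cm of covering soil.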

rice = test: Test Example 4: effect on crop by soil treatment (symbol b); settings: application herbicide amount 320 g/ha
How it was run: (§2)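 The test used sterilized diluvial soil. Seed was set down in spots and overlaid with about 1.5 cm of soil before growth in a greenhouse kept at 25° C. to 30° C.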

rapeseed = test: Test Example 4: effect on crop by soil treatment (symbol g); settings: application herbicide amount 320 g/ha
How it was run: as §2

Digitaria ciliaris = test: Test Example 5: herbicidal effect by foliage application, plastic box (symbol F); settings: 320 g/ha, 3 weeks after application
How it was run: (§3)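 Effect is rated 3 weeks after a foliar spray of water-diluted emulsion concentrate at a predetermined herbicide amount. Plants had grown 14 days in a 25° C. to 30° C. greenhouse from seed in sterilized diluvial soil.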

Lolium multiflorum Lam. = test: Test Example 5: herbicidal effect by foliage application, plastic box (symbol K); settings: 320 g/ha, 3 weeks after application
How it was run: as §3

Galium spurium = test: Test Example 5: herbicidal effect by foliage application, plastic box (symbol Q); settings: 320 g/ha, 3 weeks after application
How it was run: as §3

Veronica persica = test: Test Example 5: herbicidal effect by foliage application, plastic box (symbol R); settings: 320 g/ha, 3 weeks after application
How it was run: as §3

corn [4] = test: Test Example 5: effect on crop by foliage application, plastic box (symbol c); settings: 320 g/ha, 3 weeks after application
How it was run: (§4)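 Greenhouse test at 25° C. to 30° C. Seeds of crops and weeds were spot-sown in boxes of sterilized diluvial soil under roughly 1.5 cm soil cover, then grown for foliage treatment.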

soybean = test: Test Example 5: effect on crop by foliage application, plastic box (symbol d); settings: 320 g/ha, 3 weeks after application
How it was run: as §4

Chenopodium album = test: Test Example 5: herbicidal effect by foliage application, plastic box (symbol O); settings: 320 g/ha, 3 weeks after application
How it was run: as §3

| Compound | Herbicidal effect grade, B: Scirpus juncoides (Scirpus juncoides [1]) | Herbicidal effect grade, C: Monochoria vaginalis (Monochoria vaginalis) | Herbicidal effect grade, B: Scirpus juncoides (Scirpus juncoides [2]) | I: Avena fatua, herbicidal effect grade (Avena fatua) | c: corn, effect on crop grade (corn [3]) | b: directly sowed rice plant, effect on crop grade (rice) | g: rapeseed, effect on crop grade (rapeseed) | F: Digitaria ciliaris, herbicidal effect (criteria of Test Example 1) (Digitaria ciliaris) | K: Lolium multiflorum Lam., herbicidal effect (criteria of Test Example 1) (Lolium multiflorum Lam.) | Q: Galium spurium, herbicidal effect (criteria of Test Example 1) (Galium spurium) | R: Veronica persica, herbicidal effect (criteria of Test Example 1) (Veronica persica) | c: corn, effect on crop (criteria of Test Example 1) (corn [4]) | d: soybean, effect on crop (criteria of Test Example 1) (soybean) | F: Digitaria ciliaris, herbicidal effect grade (Digitaria ciliaris) | K: Lolium multiflorum Lam., herbicidal effect grade (Lolium multiflorum Lam.) | Q: Galium spurium, herbicidal effect grade (Galium spurium) | Herbicidal effect grade, I: Avena fatua (Avena fatua) | Effect on crop grade, c: corn (corn [3]) | Effect on crop grade, b: directly sowed rice plant (rice) | Effect on crop grade, g: rapeseed (rapeseed) | also measured |
| --- | --- | --- | --- | --- | --- | --- | --- | --- | --- | --- | --- | --- | --- | --- | --- | --- | --- | --- | --- | --- | --- |
| CON=C(C)CC1CC(OC(=O)N2CCOCC2)=C(c2c(C)cc(-c3ccc(Cl)cc3)cc2C)C1=O (mixture of isomers) [6-062] | 4 (Herbicidal ratio of 70% or higher and lower than 90%) | 4 (Herbicidal ratio of 70% or higher and lower than 90%) | 3 (Herbicidal ratio of 40% or higher and lower than 70%) | 0 (Herbicidal ratio of 5% or lower (almost no effect)) | 0 (Herbicidal ratio of 5% or lower (almost no effect)) | 0 (Herbicidal ratio of 5% or lower (almost no effect)) | 0 (Herbicidal ratio of 5% or lower (almost no effect)) | 5 (Herbicidal ratio of 90% or more (almost completely withered)) | 4 (Herbicidal ratio of 70% or higher and lower than 90%) | 5 (Herbicidal ratio of 90% or more (almost completely withered)) | 5 (Herbicidal ratio of 90% or more (almost completely withered)) | 5 (Herbicidal ratio of 90% or more (almost completely withered)) | 0 (Herbicidal ratio of 5% or lower (almost no effect)) | – | – | – | – | – | – | – | – |
| CON=C(C)CC1CC(OC(=O)N(C)C)=C(c2c(C)cc(-c3ccc(Cl)cc3)cc2C)C1=O (mixture of isomers) [6-063] | 2 (Herbicidal ratio of 20% or higher and lower than 40%) | 3 (Herbicidal ratio of 40% or higher and lower than 70%) | 3 (Herbicidal ratio of 40% or higher and lower than 70%) | 0 (Herbicidal ratio of 5% or lower (almost no effect)) | 0 (Herbicidal ratio of 5% or lower (almost no effect)) | 0 (Herbicidal ratio of 5% or lower (almost no effect)) | 0 (Herbicidal ratio of 5% or lower (almost no effect)) | 5 (Herbicidal ratio of 90% or more (almost completely withered)) | 5 (Herbicidal ratio of 90% or more (almost completely withered)) | 3 (Herbicidal ratio of 40% or higher and lower than 70%) | 0 (Herbicidal ratio of 5% or lower (almost no effect)) | 5 (Herbicidal ratio of 90% or more (almost completely withered)) | 0 (Herbicidal ratio of 5% or lower (almost no effect)) | – | – | – | – | – | – | – | – |
| C=CCON=C(C)CC1CC(O)=C(c2c(C)cc(C)cc2C)C1=O (stereo not drawn) [1-018] | 5 (Herbicidal ratio of 90% or more (almost completely withered)) | 2 (Herbicidal ratio of 20% or higher and lower than 40%) | 5 (Herbicidal ratio of 90% or more (almost completely withered)) | – | – | – | – | – | – | – | – | – | – | 5 (Herbicidal ratio of 90% or more (almost completely withered)) | 5 (Herbicidal ratio of 90% or more (almost completely withered)) | 4 (Herbicidal ratio of 70% or higher and lower than 90%) | – | – | – | – | I (Avena fatua) herbicidal effect grade (Avena fatua): 4 (Herbicidal ratio of 70% or higher and lower than 90%); c (corn) effect on crop grade (corn [3]): 4 (Herbicidal ratio of 70% or higher and lower than 90%); b (directly sowed rice plant) effect on crop grade (rice): 5 (Herbicidal ratio of 90% or more (almost completely withered)); g (rapeseed) effect on crop grade (rapeseed): 4 (Herbicidal ratio of 70% or higher and lower than 90%); R: Veronica persica, herbicidal effect grade (Veronica persica): 4 (Herbicidal ratio of 70% or higher and lower than 90%); c: corn, effect on crop grade (corn [4]): 5 (Herbicidal ratio of 90% or more (almost completely withered)); d: soybean, effect on crop grade (soybean): 3 (Herbicidal ratio of 40% or higher and lower than 70%) |
| CC(=O)CC1CC(O)=C(c2c(C)cc(-c3ccccc3)cc2C)C1=O (stereo not drawn) [7-004] | 3 (Herbicidal ratio of 40% or higher and lower than 70%) | 0 (Herbicidal ratio of 5% or lower (almost no effect)) | 0 (Herbicidal ratio of 5% or lower (almost no effect)) | – | – | – | – | 5 (Herbicidal ratio of 90% or more (almost completely withered)) | 5 (Herbicidal ratio of 90% or more (almost completely withered)) | 0 (Herbicidal ratio of 5% or lower (almost no effect)) | – | 5 (Herbicidal ratio of 90% or more (almost completely withered)) | 4 (Herbicidal ratio of 70% or higher and lower than 90%) | – | – | – | 0 (Herbicidal ratio of 5% or lower (almost no effect)) | 4 (Herbicidal ratio of 70% or higher and lower than 90%) | 5 (Herbicidal ratio of 90% or more (almost completely withered)) | 3 (Herbicidal ratio of 40% or higher and lower than 70%) | O: Chenopodium album, herbicidal effect (criteria of Test Example 1) (Chenopodium album): 2 (Herbicidal ratio of 20% or higher and lower than 40%) |
| COc1cc(Br)cc(F)c1C1=C(O)CC(CC(C)=O)C1=O (stereo not drawn) [7-029] | 0 (Herbicidal ratio of 5% or lower (almost no effect)) | 0 (Herbicidal ratio of 5% or lower (almost no effect)) | – | – | – | – | – | – | 5 (Herbicidal ratio of 90% or more (almost completely withered)) | 0 (Herbicidal ratio of 5% or lower (almost no effect)) | 0 (Herbicidal ratio of 5% or lower (almost no effect)) | – | – | – | – | – | 0 (Herbicidal ratio of 5% or lower (almost no effect)) | 0 (Herbicidal ratio of 5% or lower (almost no effect)) | 1 (Herbicidal ratio of 5% or higher and lower than 20%) | 0 (Herbicidal ratio of 5% or lower (almost no effect)) | O: Chenopodium album, herbicidal effect (criteria of Test Example 1) (Chenopodium album): 0 (Herbicidal ratio of 5% or lower (almost no effect)) |
| CC(=O)C1CC(O)=C(c2c(C)cc(C)cc2C)C1=O (stereo not drawn) [8-001] | 0 (Herbicidal ratio of 5% or lower (almost no effect)) | 0 (Herbicidal ratio of 5% or lower (almost no effect)) | 0 (Herbicidal ratio of 5% or lower (almost no effect)) | – | – | – | – | – | – | – | – | – | – | 1 (Herbicidal ratio of 5% or higher and lower than 20%) | 1 (Herbicidal ratio of 5% or higher and lower than 20%) | 0 (Herbicidal ratio of 5% or lower (almost no effect)) | 0 (Herbicidal ratio of 5% or lower (almost no effect)) | 0 (Herbicidal ratio of 5% or lower (almost no effect)) | 0 (Herbicidal ratio of 5% or lower (almost no effect)) | 0 (Herbicidal ratio of 5% or lower (almost no effect)) | O: Chenopodium album, herbicidal effect grade (Chenopodium album): 0 (Herbicidal ratio of 5% or lower (almost no effect)); c: corn, effect on crop grade (corn [4]): 0 (Herbicidal ratio of 5% or lower (almost no effect)); d: soybean, effect on crop grade (soybean): 0 (Herbicidal ratio of 5% or lower (almost no effect)) |
